According to patent publication US6514989B1, “Aromatic and heteroaromatic substituted 1,2,4-triazolo pyridine derivatives” (Hoffmann-La Roche Inc., priority 2001, dated 2003):

What was measured:
[1] = target: T1, human adenosine A2a receptor (Homo sapiens, UniProt P29274); assay: Human adenosine A2a receptor radioligand binding assay ([125I]-AB-MECA, CHO cell membranes); conditions: for Selectivity A1/A2a: ratio obtained by dividing KiHA1 by KiHA2A; for Ki: recombinant human A2a receptor expressed in CHO cells, Ki from IC50 by Cheng-Prussoff equation, read-out: hA2a Ki
T1 construct: expressed in transfected cells; host or cells: CHO cells, semliki forest virus expression system; membrane preparation
Procedure: Human Adenosine A2a Receptor
The gene encoding human adenosine A2a receptor was recombinantly introduced and expressed in chinese hamster ovary (CHO) cells using the semliki forest virus expression system. Cells were harvested, washed twice by centrifugation, homogenized and again washed by centrifugation. The final washed membrane pellet was suspended in a Tris (50 mM) buffer containing 120 mM NaCl, 5 mM KCl, 2 mM CaCl2 and 10 mM MgCl2 (pH 7.4) (buffer A). The [^125I]-AB-MECA ([N(6)-(4-amino-3-iodobenzyl)-5′-N-methylcarbamoyl-adenosine]; 0.05 nM) binding assay was carried out in 96-well a plates in the presence of 20 μg of membrane protein and 0.1 U adenosine deaminase in a final volume of […] of buffer A. Non-specific binding was defined using xanthine amine congener (XAC; 2 μM). Compounds were tested at 10 concentrations from 10 μM-0.3 nM. All assays were conducted in duplicate and repeated at least two times. Assay plates were incubated for 1 hour at room temperature before filtration through Whatman Unifilter GF/C 96-well filter plates (preincubated with 0.3% polyethyleneimine). Filters were washed 3 times with 0.3 ml of cold (4° C.) Tris (50 mM)—NaC […]
[…] 1 (120 mM) buffer (pH 7.4). Microscint 40 scintillation fluid (50 μl) was added to each well and the wells sealed. After gentle shaking for 20 min, plates were counted on a Packard Topcount scintillation counter. IC50 values were calculated using a non-linear curve fitting program and Ki values calculated using the Cheng-Prussoff equation.
(§1) In accordance with the invention, it has been shown that compounds of formula I have a high affinity toward the A2A receptor. In Table I below specific values of prepared compounds are described, Values of KiHA2A and KiHA1 are shown in Table I for compounds of formula 1. A low Ki value is indicative of a particular compound's high affinity toward a particular receptor and conversely a higher Ki value is indicative of a lower affinity for that compound toward a particular receptor. […] Generally speaking, compounds that have a higher HA1/HA2A ratio are able to give a substantially complete blockade of the HA2A receptor without substantially affecting the A1 receptor.

[2] = target: T2, human adenosine A1 receptor (Homo sapiens, UniProt P30542); assay: Human adenosine A1 receptor radioligand binding assay ([3H]-DPCPX, SPA, CHO cell membranes); conditions: recombinant human A1 receptor expressed in CHO cells; [3H]-DPCPX 0.6 nM; Ki from IC50 by Cheng-Prussoff equation; read-out: hA1 Ki
T2 construct: expressed in transfected cells; host or cells: CHO cells, semliki forest virus expression system; membrane preparation
T2 sequence (P30542 1-326): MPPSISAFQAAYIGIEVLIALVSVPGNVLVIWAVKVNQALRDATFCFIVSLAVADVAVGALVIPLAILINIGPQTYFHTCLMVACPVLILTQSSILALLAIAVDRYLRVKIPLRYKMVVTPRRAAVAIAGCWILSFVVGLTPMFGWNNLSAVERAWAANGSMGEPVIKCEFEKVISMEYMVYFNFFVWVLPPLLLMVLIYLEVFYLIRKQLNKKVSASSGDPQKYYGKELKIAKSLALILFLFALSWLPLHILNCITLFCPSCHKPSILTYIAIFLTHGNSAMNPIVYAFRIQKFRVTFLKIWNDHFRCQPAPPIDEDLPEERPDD
Procedure: Human Adenosine A^1 Receptor
The gene encoding human adenosinie A1 receptor was recombinantly introduced and expressed in chinese hamster ovary (CHO) cells using the semliki forest virus expression system. Cells were harvested, washed twice by centrifugation, homogenized and again washed by centrifugation. The final washed membrane pellet was suspended in a Tris (50 mM) buffer containing 120 mM NaCl, 5 mM KCl, 2 mM CaCl2 and 10 mM MgCl2 (pH 7.4) (buffer A). The [^3H]-DPCPX (([propyl-3H]8-cyclopentyl-1,3-dipropyxanthine); 0.6 nM) binding assay was carried out in 96-well plates in the presence of 2.5 μg of membrane protein, 0.5 mg of Ysi-poly-1-lysine SPA beads and 0.1 U adenosine deaminase in a final volume of 200 μl of buffer A. Non-specific binding was defined using xanthine amine congener (XAC; 2 μM). Compounds were tested at 10 concentrations from 10 μM-0.3 nM. All assays were conducted in duplicate and repeated at least two times. Assay plates were incubated for 1 hour at room temperature before centrifugation and then bound ligand determined using a Packard Topcount scintillation counter. IC50 values were calculated using a non-linear curve fitting program and Ki values calculated using the Cheng-Prussoff equation.
as §1

T1 sequence (P29274 whole entry): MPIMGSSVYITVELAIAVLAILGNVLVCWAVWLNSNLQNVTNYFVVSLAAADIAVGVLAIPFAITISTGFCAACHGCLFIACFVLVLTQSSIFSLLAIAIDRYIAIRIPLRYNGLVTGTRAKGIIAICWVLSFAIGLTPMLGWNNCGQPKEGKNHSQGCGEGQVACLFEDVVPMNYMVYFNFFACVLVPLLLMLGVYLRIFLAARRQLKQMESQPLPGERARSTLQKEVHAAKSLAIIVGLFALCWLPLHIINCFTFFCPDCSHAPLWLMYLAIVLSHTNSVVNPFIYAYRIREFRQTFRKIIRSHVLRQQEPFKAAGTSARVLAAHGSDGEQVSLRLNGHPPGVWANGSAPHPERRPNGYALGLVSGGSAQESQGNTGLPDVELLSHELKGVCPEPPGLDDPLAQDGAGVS

Row | Selectivity A1/A2a [1] | Ki [1] | Ki [2] | Compound
1 | 37.6 | 63.6 nM | 2390 nM | COc1ccc(-c2cccs2)n2nc(NC(=O)c3ccc(Br)cc3)nc12 [Example 2, 4-Bromo-N-(8-methoxy-5-thiophen-2-yl-[1,2,4]triazolo[1,5-a]pyridin-2-yl)-benzamide]
2 | 12.3 | 191 nM | 2340 nM | COc1ccc(-c2ccsc2)n2nc(NC(=O)c3ccc(F)cc3)nc12 [Example 33, 4-Fluoro-N-(8-methoxy-5-thiophen-3-yl-[1,2,4]triazolo[1,5-a]pyridin-2-yl)-benzamide]
3 | 43.4 | 65.1 nM | 2830 nM | COc1ccc(-c2ccccc2)n2nc(NC(=O)c3ccc(C)s3)nc12 [Example 23, 5-Methyl-thiophene-2-carboxylic acid(8-methoxy-5-phenyl-[1,2,4]triazolo[1,5-a]pyridin-2-yl)-amide]
4 | 24.6 | 229 nM | 5640 nM | COc1ccc(-c2ccccc2F)n2nc(NC(=O)c3ccc(F)cc3)nc12 [Example 32, 4-Fluoro-N-[5-(2-fluorophenyl)-8-methoxy-[1,2,4]triazolo[1,5-a]pyridin-2-yl]-benzamide]
5 | 17.4 | 142 nM | 2480 nM | COc1ccc(-c2cccs2)n2nc(NC(=O)c3cccc(Cl)c3)nc12 [Example 14, 3-Chloro-N-(8-methoxy-5-thiophen-2-yl-[1,2,4]triazolo[1,5-a]pyridin-2-yl)-benzamide]
6 | 20.8 | 227 nM | 4710 nM | COc1ccc(C(=O)Nc2nc3c(OC)ccc(-c4ccccc4)n3n2)cc1 [Example 7, 4-Methoxy-N-(8-methoxy-5-phenyl-[1,2,4]triazolo[1,5-a]pyridin-2-yl)-benzamide]
7 | 25.6 | 114 nM | 2910 nM | COc1ccc(-c2cccs2)n2nc(NC(=O)c3ccc(Cl)cc3)nc12 [Example 15, 4-Chloro-N-(8-methoxy-5-thiophen-2-yl-[1,2,4]triazolo[1,5-a]pyridin-2-yl)-benzamide]
8 | 24.2 | 71.1 nM | 1720 nM | COc1ccc(-c2ccsc2)n2nc(NC(=O)c3ccc(C)s3)nc12 [Example 29, 5-Methyl-thiophene-2-carboxylic acid (8-methoxy-5-thiophen-3-yl-[1,2,4]triazolo[1,5-a]pyridin-2-yl)-amide]
9 | 10.6 | 128 nM | 1360 nM | COc1ccc(-c2cccc(F)c2)n2nc(NC(=O)c3ccc(C)s3)nc12 [Example 35, 5-Methyl-thiophene-2-carboxylic acid [5-(3-fluoro-phenyl)-8-methoxy-[1,2,4]triazolo[1,5-a]pyridin-2-yl]-amide]
10 | 14.2 | 238 nM | 3380 nM | COc1ccc(C(=O)Nc2nc3c(OC)ccc(-c4cccs4)n3n2)cc1 [Example 16, 4-Methoxy-N-(8-methoxy-5-thiophen-2-yl-[1,2,4]triazolo[1,5-a]pyridin-2-yl)-benzamide]
11 | 12.0 | 208 nM | 2490 nM | COc1ccc(-c2cccs2)n2nc(NC(=O)c3ccccc3Br)nc12 [Example 17, 2-Bromo-N-(8-methoxy-5-thiophen-2-yl-[1,2,4]triazolo[1,5-a]pyridin-2-yl)-benzamide]
12 | 19.5 | 134 nM | 2610 nM | COc1ccc(-c2ccccc2F)n2nc(NC(=O)c3ccc(C)s3)nc12 [Example 24, 5-Methyl-thiophene-2-carboxylic acid [5-(2-fluoro-phenyl)-8-methoxy-[1,2,4]triazolo[1,5-a]pyridin-2-yl]-amide]
13 | 22.4 | 102 nM | 2290 nM | COc1ccc(-c2ccccc2)n2nc(NC(=O)c3ccc(Br)cc3)nc12 [Example 9, 4-Bromo-N-(8-methoxy-5-phenyl-[1,2,4]triazolo[1,5-a]pyridin-2-yl)-benzamide]
14 | 12.7 | 165 nM | 2090 nM | COc1ccc(-c2cccc(Cl)c2)n2nc(NC(=O)c3ccc(C)s3)nc12 [Example 25, 5-Methyl-thiophene-2-carboxylic acid [5-(3-chloro-phenyl)-8-methoxy-[1,2,4]triazolo[1,5-a]pyridin-2-yl]-amide]
15 | 19.6 | 114 nM | 2240 nM | COc1ccc(-c2ccccc2)n2nc(NC(=O)c3ccc(F)cc3)nc12 [Example 4, 4-Fluoro-N-(8-methoxy-5-phenyl-[1,2,4]triazolo[1,5-a]pyridin-2-yl)-benzamide]
16 | 11.2 | 133 nM | 1490 nM | CCOc1cccc(-c2ccc(OC)c3nc(NC(=O)c4ccc(F)cc4)nn23)c1 [Example 34, N-[5-(3-Ethoxy-phenyl)-8-methoxy-[1,2,4]triazolo[1,5-a]pyridin-2-yl]-4-fluoro-benzamide]
17 | 7.3 | 258 nM | 1870 nM | COc1ccc(-c2ccccc2)n2nc(NC(=O)c3ccccc3Cl)nc12 [Example 5, 2-Chloro-N-(8-methoxy-5-phenyl-[1,2,4]triazolo[1,5-a]pyridin-2-yl)-benzamide]
18 | 23.4 | 159 nM | 3710 nM | COc1cccc(C(=O)Nc2nc3c(OC)ccc(-c4ccccc4)n3n2)c1 [Example 11, 3-Methoxy-N-(8-methoxy-5-phenyl-[1,2,4]triazolo[1,5-a]pyridin-2-yl)-benzamide]
19 | 39.6 | 29.5 nM | 1170 nM | COc1ccc(-c2ccc(Cl)s2)n2nc(NC(=O)c3ccc(C)s3)nc12 [Example 31, 5-Methyl-thiophene-2-carboxylic acid [5-(5-chloro-thiophen-2-yl)-8-methoxy-[1,2,4]triazolo[1,5-a]pyridin-2-yl]-amide]
20 | 21.1 | 136 nM | 2880 nM | COc1ccc(-c2ccccc2)n2nc(NC(=O)c3cccc(Br)c3)nc12 [Example 8, 3-Bromo-N-(8-methoxy-5-phenyl-[1,2,4]triazolo[1,5-a]pyridin-2-yl)-benzamide]
21 | 11.1 | 256 nM | 2860 nM | COc1ccc(-c2ccc(Cl)cc2)n2nc(NC(=O)c3ccc(C)s3)nc12 [Example 26, 5-Methyl-thiophene-2-carboxylic acid [5-(4-chloro-phenyl)-8-methoxy-[1,2,4]triazolo[1,5-a]pyridin-2-yl]-amide]
22 | 19.3 | 112 nM | 2150 nM | COc1ccc(-c2cccs2)n2nc(NC(=O)c3ccccc3)nc12 [Example 12, N-(8-Methoxy-5-thiophen-2-yl-[1,2,4]triazolo[1,5-a]pyridin-2-yl)-benzamide]
